Results from the Kinase Knowledgebase extract (Sharma et al. 2016).

Biological target: CDK2 (human) (UniProt P24941)
Assay: Enzyme Assay

Ki, < 1000 nM:
CCc1cc(Nc2cc(C)[nH]n2)nc(C2(c3ccc4c(=O)[nH][nH]c4c3)CCC2)n1
O=c1[nH][nH]c2ccc(OCc3nc(Nc4cc(C5CC5)[nH]n4)c4ccccc4n3)cc12
O=c1[nH][nH]c2cc(Nc3nc(Nc4cc(-c5ccco5)[nH]n4)c4ccccc4n3)ccc12
O=c1[nH][nH]c2cc([C@@H]3C[C@H]3c3nc(Nc4n[nH]c5ccc(F)cc45)c4ccccc4n3)ccc12
O=c1[nH][nH]c2cc(OC3CCCC(Nc4cc(C5CC5)[nH]n4)C3)ccc12 (configuration not stated)
O=c1[nH][nH]c2cc(NCC3CCCC3Nc3cc(C4CC4)[nH]n3)ccc12 (configuration not stated)
Cn1cnc(NCCC(=O)Cc2ccc3c(=O)[nH][nH]c3c2)c1
CN1CCN(c2cc(Nc3cc(C4CC4)[nH]n3)nc(Sc3ccc4c(=O)[nH][nH]c4c3)n2)CC1
O=c1[nH][nH]c2cc(Nc3ncc(-c4cccs4)c(Nc4cc(C5CC5)[nH]n4)n3)ccc12
Cc1cc(Nc2cc(-c3ccco3)[nH]n2)nc(COc2ccc3[nH][nH]c(=O)c3c2)n1
O=C(CCNc1nccnn1)Oc1ccc2c(=O)[nH][nH]c2c1
Cc1c(Nc2n[nH]c3ccccc23)nc(-c2cc3c(=O)[nH][nH]c3cc2Cl)nc1N1CCOCC1
O=C1Cc2nc(-c3ccc4[nH][nH]c(=O)c4c3C(F)(F)F)nc(Nc3n[nH]c4ccccc34)c2CN1
O=c1[nH][nH]c2cc(Nc3cc(Nc4n[nH]c5ccccc45)ccn3)ccc12
CN(C)CCCOc1cc(Nc2cc(C3CC3)[nH]n2)nc(Sc2ccc3c(=O)[nH][nH]c3c2)n1
Cc1cc(Nc2nc(Nc3ccc4c(=O)[nH][nH]c4c3)nc3c2CCCCC3)n[nH]1
O=c1[nH][nH]c2cc(CC(CCNc3cc(C4CC4)[nH]n3)Cc3ccccc3)ccc12 (configuration not stated)
Cn1cnc(NC(=O)CC(=O)Oc2ccc3c(=O)[nH][nH]c3c2)c1
Cc1cnc(NC2CCC(Oc3ccc4c(=O)[nH][nH]c4c3)C2)s1 (configuration not stated)
O=c1[nH][nH]c2cc(CCC3CCC(Nc4nccnn4)C3)ccc12 (configuration not stated)
Cc1cc(-c2cc3c(=O)[nH][nH]c3cc2Cl)nc(Nc2n[nH]c3ccccc23)c1C
CC(C)(C)c1cc(Nc2cc(-c3cccc([N+](=O)[O-])c3)nc(Nc3ccc4c(=O)[nH][nH]c4c3)n2)n[nH]1
O=c1[nH][nH]c2cc(Nc3cc4ccccc4c(Nc4cc(C5CC5)[nH]n4)n3)ccc12
Cc1cnc(NOCCNc2ccc3c(=O)[nH][nH]c3c2)s1
O=c1[nH][nH]c2ccc(C3COCC(Nc4cc(C5CC5)[nH]n4)C3)cc12 (configuration not stated)
O=c1[nH][nH]c2cc(Sc3nc(Nc4n[nH]c5ccccc45)c4ccccc4n3)ccc12
O=c1[nH][nH]c2cc(NCCONc3cc(C4CC4)[nH]n3)ccc12
O=c1[nH][nH]c2cc(Sc3nc(Nc4cc(C5CC5)[nH]n4)c4ccccc4n3)ccc12
COCCNc1cc(Nc2cc(C)[nH]n2)nc(SCc2ccc3[nH][nH]c(=O)c3c2)n1
O=c1[nH][nH]c2cc(CCCONc3ccccn3)ccc12
Cc1cnc(NCCC(=O)Cc2ccc3c(=O)[nH][nH]c3c2)s1
O=C(CC(=O)Oc1ccc2c(=O)[nH][nH]c2c1)Nc1ccccn1
O=c1[nH][nH]c2ccc(CNc3cc(Nc4cc(C5CC5)[nH]n4)c4ccccc4n3)cc12
Cc1cc(Nc2cc(C)[nH]n2)nc(COc2ccc3[nH][nH]c(=O)c3c2)n1
Cn1cnc(NC(CCOc2ccc3c(=O)[nH][nH]c3c2)c2ccccc2)c1 (configuration not stated)
O=C(NC1CCCCC1)c1cc(Nc2nc(-c3ccc4[nH][nH]c(=O)c4c3)nc3ccccc23)n[nH]1
O=c1[nH][nH]c2cc(Sc3cc(Nc4cc(C5CC5)[nH]n4)c4ccccc4n3)ccc12
O=c1[nH][nH]c2ccc(-c3nc(Nc4n[nH]c5c(F)cc(F)cc45)c4ccncc4n3)c(Cl)c12
O=C(CCNc1ccc2c(=O)[nH][nH]c2c1)Nc1cc(C2CC2)[nH]n1
O=c1[nH][nH]c2cc(COCc3cc4ccccc4c(Nc4cc(C5CC5)[nH]n4)n3)ccc12
O=c1[nH][nH]c2cc(Nc3nc(Nc4cc(C5CC5)[nH]n4)cc(-c4ccccc4Cl)n3)ccc12
Cc1cnc(NC(=O)CCNc2ccc3c(=O)[nH][nH]c3c2)s1
COC[C@H]1CCN(C(=O)c2cc(Nc3nc(-c4ccc5[nH][nH]c(=O)c5c4)nc4ccccc34)n[nH]2)C1
Cc1cnc(NC(CCOc2ccc3c(=O)[nH][nH]c3c2)c2ccccc2)s1 (configuration not stated)
O=C(CCNc1nccnn1)Cc1ccc2c(=O)[nH][nH]c2c1
Cc1ccc2nc(Nc3ccc4c(=O)[nH][nH]c4c3)nc(Nc3cc(C4CC4)[nH]n3)c2n1
Cc1nc(Sc2ccc3c(=O)[nH][nH]c3c2)nc(Nc2cc(C3CC3)[nH]n2)c1C
O=c1[nH][nH]c2ccc(-c3nc4c(c(Nc5n[nH]c6ccccc56)n3)N(Cc3ccccc3)CCC4)c(C(F)(F)F)c12
Cc1cc(Nc2cc(C3CC3)[nH]n2)nc(Oc2ccc3c(=O)[nH][nH]c3c2)n1
Cc1cnc(NC(=O)CCSc2ccc3c(=O)[nH][nH]c3c2)s1
O=c1[nH][nH]c2cc(OC3COCC(Nc4cc(C5CC5)[nH]n4)C3)ccc12 (configuration not stated)
O=c1[nH][nH]c2cc(OC3CCCC(Nc4ccccn4)C3)ccc12 (configuration not stated)
Cn1cnc(NC2CCC(COCc3ccc4c(=O)[nH][nH]c4c3)C2)c1 (configuration not stated)
CCc1cc(Nc2cc(C)[nH]n2)nc(Nc2ccc3c(=O)[nH][nH]c3c2)n1
O=c1[nH][nH]c2ccc(C3CCCC(Nc4ccccn4)C3)cc12 (configuration not stated)
NCCc1cc(Nc2n[nH]c3ccccc23)nc(-c2ccc3[nH][nH]c(=O)c3c2C(F)(F)F)n1
O=c1[nH][nH]c2cc(CSc3cc(Nc4n[nH]c5ccccc45)c4ccccc4n3)ccc12
Cc1cc(Nc2nc(Sc3ccc4c(=O)[nH][nH]c4c3)nc3cc(O)ccc23)n[nH]1
O=c1[nH][nH]c2cc(OCCC(Nc3cc(C4CC4)[nH]n3)c3ccccc3)ccc12 (configuration not stated)
Cn1cnc(NC2CCCC(Nc3ccc4c(=O)[nH][nH]c4c3)C2)c1 (configuration not stated)
O=c1[nH][nH]c2ccc(-c3nc(Nc4n[nH]cc4-c4ccccc4)c4ccccc4n3)c(C(F)(F)F)c12
CCc1cc(Nc2cnnc(-c3ccc4[nH][nH]c(=O)c4c3)n2)n[nH]1
